Test results taken from patent US12414948B2, “Methods” (INTRA-CELLULAR THERAPIES, INC., priority 2022, dated 2025).

Legend:
[1] = system: serum cytokines IL-1b, IL-6, TNF-alpha, IL-10; test: Serum cytokine protein (Multiplex MSD V-Plex) after LPS and lumateperone; assay type: in vivo, mouse; conditions: 2 h
Protocol: (§1) All other reagents are obtained in the highest purity available from Sigma-Aldrich (St. Louis, MO) unless otherwise noted. […] Some rodents are given a cotreatment with a subcutaneous (SC) injection of lipopolysaccharide (LPS, 500 μg/kg; Sigma-Aldrich, ref #0127:B8) diluted in 0.9% injectable saline while control group animals receive injections of all vehicles matching the experimental conditions. […] On day 2, either no injection for naïve rats, or saline or LPS is injected (1 mg/kg, SC).
Tissue Collection. […] Rats are euthanized 18 hours after LPS injection for sample collection. Hippocampi from mice and rats are rapidly dissected under RNAse-free conditions and placed in 1.5 mL Eppendorf tubes. When appropriate, samples are snap frozen in liquid nitrogen prior to storage at −80° C. until further analysis. Trunk blood is collected from mice into serum collection tubes, allowed to clot at room temperature for 1 hour, then centrifuged at 1,500 g for 10 minutes at 4° C.
Multiplex Assays. In mouse serum, protein levels of IL-1b, IL-6, IL-10 and TNF-alpha are measured using a V-Plex Meso Scale Discovery (MSD) Multiplex spot assay Mouse Neuroinflammation 1 panel (Meso Scale Diagnostics, Rockville, MD). All samples are run in duplicates or triplicates according to manufacturer instructions and analyzed with MSD Discovery Workbench software (Meso Scale Diagnostics).
An additional experimental group receiving an injection with lumateperone alone is included as an additional control. Protein concentration is measured using the Multiplex MSD assay V-Plex technology. Results are expressed in pg/mL, except for IL-6, which is measured in ng/mL.

[2] = system: hippocampal mRNA (Il1b, Il6, Tnfa, Il10, Icam1, Cldn5, Csf1); test: Hippocampal mRNA (qRT-PCR), delayed injection of lumateperone 30 minutes after LPS; assay type: in vivo, mouse; conditions: for Hippocampal mRNA expression (delayed injection) Cldn5 / Hippocampal mRNA expression (delayed injection) Csf1 / Hippocampal mRNA expression (delayed injection) Icam1: normalized to control
Protocol: as §1
Quantitative Real-Time PCR. Mouse hippocampal tissue is homogenized with glass beads in 1 mL of TRIzol reagent using a BeadBeater (Biospec Products, Bartlesville, OK). Heavy phase-lock gel tubes enabled separation of phases following the addition of 400 μL chloroform to the sample and centrifugation at 12,000 rpm for 10 minutes at room temperature. RNA is extracted using Qiagen Rneasy kit (Qiagen, Hilden, Germany). For cDNA synthesis, 2 μg of total RNA is used (SuperScript IV Reverse Transcriptase; ThermoFisher Scientific, Waltham, MA). […] In the hippocampus, 4 key markers of pro- and anti-inflammatory cytokines and chemokines (Il1b: ID Mm00434228_m1, Tnfa: ID Mm00443258_m1, 116: ID Mm00446190_m1, and I110: ID Mm01288386_m1; ThermoFisher Scientific) are initially chosen for analysis (n=5-12 per group). In subsequent experiments, the transcripts for other markers of inflammation are chosen for analysis including Icam1 (ID Mm00516023_m1; a cell adhesion molecule involved in immune cell migration), Cldn5 (ID Mm00727012_s1; a tight junctions protein), colony stimulating factor 1 (Csf1: ID Mm00432686_m1; a factor that regulates microglia function) and its receptor Csf1r (ID Mm01266652_m1), and the nucleotide binding and oligomerization domain-like receptor family pyrin domain-containing 3 inflammasome complex (Nlrp3: Mm00840904_m1). Gapdh (ID Mm99999915_g1) is chosen as a housekeeping gene. QuantStudio 7 (ThermoFisher Scientific) is used for analyzing the plates (MicroAmp Optical 384-well plates; Applied Biosystems, Waltham, MA, and ThermoFisher Scientific) that are loaded with TaqMan Universal Master Mix II without uracil-DNA glycosylate in a 20 μl reaction volume using 100 ng cDNA per well. All mRNAs are measured by qRT-PCR on ABI Prism 7900HT system using TaqMan Gene Expression Assays. Ct values of genes of interest are normalized to that of the reference gene (Gapdh).
Samples are collected 1.5 hours later (i.e., 2 hours after LPS injection).

[3] = system: hippocampal microglia mRNA (Il1b, Il6, Tnfa, Nlrp3, Csf1r); test: mRNA (RT-qPCR) in microglia enriched from rat hippocampus after LPS; assay type: in vivo; conditions: rats, LPS 500 μg/kg; label LPS = LPS + vehicle, label Luma = Luma 3 mg/kg 16 h after LPS; microglia isolated +18 h; normalized to control (Dct)
Protocol: Microglia Enrichment. […] Brain tissue is then processed through a dounce homogenizer followed by passages through 16- and 20-gauge needles. One mL of medium A is added to wash cell suspension, which is passed through a […] cell strainer and kept on ice. Next, 6 mL of 100% Percoll solution (9 parts of Percoll [GE Healthcare, Chicago, IL] and 1 part of HBSS) is added to obtain a 75% Percoll solution. The 75% Percoll cell suspension is then underlaid a layer of 25% Percoll solution containing Phenol red, which has a layer of PBS on top. The discontinuous Percoll density gradient is layered as followed: 75%, 25%, and 0% isotonic Percoll (PBS) to isolate hippocampal microglia. The gradients are then centrifuged at 4° C. for 25 minutes at 3,000 rpm in swinging buckets with minimal acceleration and deceleration and no brake. After centrifugation, the top layer containing myelin and debris (interface PBS/25% Percoll) is removed and the cellular layer at the 25%/75% interphase is collected and washed. Pilot experiments compare the gene expression of the different fractions and validated the presence of microglia in the interphase layer. The final pellet is resuspended in 350 μL of Buffer RLT from Qiagen microkit (Qiagen) to perform RNA extraction according to the manufacturer's instructions.
Exploratory experiments reveal that in microglia-enriched fractions from rat hippocampi, inflammation is returned closer to background levels at +26 hours after a dose of LPS. Thus, an earlier time point of +18 h after the LPS injection is selected to assess potential changes indicative of inflammation.
Hippocampi on both sides of the brain are collected 2 hours later (+18 hour from LPS injection) and microglia are rapidly isolated in an enriched fraction by Percoll gradient. RNA is extracted from the resulting, reconstituted cell pellet and RT-qPCR is performed. The results are shown in Table 7 as relative change in mRNA levels for each cytokine gene (Il1b, Il6, Tnfa, Nlrp3, Csf1r) normalized to the control group using the Dct method (n=8-12 per group): […]

[4] = LPS 500 μg/kg SC-challenged mice, label LPS = LPS + vehicle, label Luma = Luma 3 mg/kg IP 30 min after LPS, 2 h after LPS
[5] = LPS 500 μg/kg SC-challenged mice, label LPS = LPS + vehicle, label Luma = Luma 3 mg/kg IP 30 min after LPS, 2 h after LPS, normalized to control (Dct)
[6] = mice, saline SC then Luma 3 mg/kg IP 30 min later (no LPS)
[7] = mice, saline SC then Luma 3 mg/kg IP 30 min later (no LPS), samples 1.5 h later, normalized to control (Dct)
[8] = LPS 500 μg/kg-challenged mice, label LPS = LPS alone, label Luma = LPS + Luma 3 mg/kg IP

Molecule	Hippocampal mRNA expression (delayed injection) Cldn5 [2, 4]	Hippocampal mRNA expression (delayed injection) Csf1 [2, 4]	Hippocampal cytokine mRNA expression (delayed injection) IL-6 [2, 5]	Hippocampal cytokine mRNA expression (delayed injection) TNF-alpha [2, 5]	Hippocampal microglial cytokine mRNA expression IL-1b [3]	Hippocampal microglial cytokine mRNA expression IL-6 [3]	Hippocampal microglial cytokine mRNA expression TNF-alpha [3]	Hippocampal microglial mRNA expression Csf1R [3]	Hippocampal microglial mRNA expression NLRP3 [3]	further results
CN1CCN2c3c(cccc31)[C@@H]1CN(CCCC(=O)c3ccc(F)cc3)CC[C@@H]12 [Luma, lumateperone]	0.20	−0.11	−0.10	0.34	0.38	−0.22	−1.00	−0.05	−0.48	Serum cytokine concentration IL-6 ([1]; mice, Luma 3 mg/kg IP alone (no LPS)): 0.09 ng/mL; Hippocampal mRNA expression (delayed injection) Cldn5 [2, 6]: 0.33; Hippocampal mRNA expression (delayed injection) Csf1 [2, 6]: 0.05; Hippocampal mRNA expression (delayed injection) Icam1 [2, 6]: 0.28; Hippocampal cytokine mRNA expression (delayed injection) IL-1b [2, 7]: 0.90; Hippocampal cytokine mRNA expression (delayed injection) IL-6 [2, 7]: −0.46; Hippocampal cytokine mRNA expression (delayed injection) TNF-alpha [2, 7]: −0.31
lipopolysaccharide [LPS, reference compound]	−0.63	0.41	1.10	2.33	2.82	0.89	−0.28	0.50	0.71	Serum cytokine concentration IL-1b [1, 8]: 6.27 pg/mL; Serum cytokine concentration IL-6 [1, 8]: 14.52 ng/mL; Serum cytokine concentration IL-10 [1, 8]: 980.4 pg/mL; Serum cytokine concentration TNF-alpha [1, 8]: 335.3 pg/mL; Hippocampal mRNA expression (delayed injection) Icam1 [2, 4]: 4.33; Hippocampal cytokine mRNA expression (delayed injection) IL-1b [2, 5]: 2.89; Hippocampal cytokine mRNA expression (delayed injection) IL-10 [2, 5]: 1.88
